IC50 data for 21 compounds are collected here from patent US11161864B2, “Sting agonists” (Venenum Biodesign, LLC, priority 2018, dated 2021).

Molecules are shown by their SMILES. Like-named read-outs stand apart in the source and are kept apart here.

Experiment [1] has as its target AQ variant of truncated human STING protein, amino acids 155-379 (Homo sapiens (Human), UniProt Q86WV6, G230A/H232R/R293Q). The experiment can be described thus: Human AQ STING [3H] 2′,3′-cGAMP scintillation proximity competition binding assay. An excerpt:
(§1) A human STING [^3H] 2′,3′-cGAMP scintillation proximity competition binding assay was utilized to detect binding of compounds to STING protein. […] The protein encoding plasmid contained a HIS tag, followed by an Avi tag and then a SUMO tag, which were followed by the STING coding sequence within the pET-28a (+) vector. The plasmid was transfected into a BL21 (DE3)/BirA E. coli co-expression strain. Protein was purified from the bacterial lysate using a cobalt-affinity column. The purified protein was dialyzed against PBS and then 20% glycerol was added prior to storage at −80° C.
(§2) 2′,3′-cGAMP in assay buffer (50 mM Tris pH 7.5, 100 mM NaCl, 0.1% Fatty Acid Free BSA). Test compounds (2.5 μL) were added to the plate first followed by a 25 μL mixture of STING protein, streptavidin PVT SPA beads (Perkin Elmer) and 10 μL [^3H] 2′,3′-cGAMP. Plates were incubated at room temperature for 18 hrs and read on a Wallac MicroBeta TriLux (Perkin Elmer).
Background: SPA uses beads or plates that emit light when radiolabelled molecules are held near them.

Experiment [2] has as its target wild-type (WT) truncated human STING protein, amino acids 155-379 (Homo sapiens (Human), UniProt Q86WV6, H232R). Kind of experiment: Human WT STING [3H] 2′,3′-cGAMP scintillation proximity competition binding assay.
Description: as §1, §2

Experiment [3] concerns the target murine STING protein (amino acids 154-378) (Mus musculus (Mouse), UniProt Q3TBT3). Kind of experiment: Murine STING [3H] 2′,3′-cGAMP scintillation proximity competition binding assay.
Setting [4] is: read-out: Human AQ Binding IC50.
Setting [5] is: read-out: Human WT Binding IC50.

Sequence of AQ variant of truncated human STING protein, amino acids 155-379 (Q86WV6 155-379 G230A/H232R/R293Q): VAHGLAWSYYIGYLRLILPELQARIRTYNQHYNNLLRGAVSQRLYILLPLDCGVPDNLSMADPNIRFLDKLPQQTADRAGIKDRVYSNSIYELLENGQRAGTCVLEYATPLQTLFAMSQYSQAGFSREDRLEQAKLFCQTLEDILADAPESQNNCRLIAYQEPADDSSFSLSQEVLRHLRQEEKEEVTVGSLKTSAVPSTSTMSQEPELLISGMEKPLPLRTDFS
Sequence of murine STING protein (amino acids 154-378) (Q3TBT3 154-378): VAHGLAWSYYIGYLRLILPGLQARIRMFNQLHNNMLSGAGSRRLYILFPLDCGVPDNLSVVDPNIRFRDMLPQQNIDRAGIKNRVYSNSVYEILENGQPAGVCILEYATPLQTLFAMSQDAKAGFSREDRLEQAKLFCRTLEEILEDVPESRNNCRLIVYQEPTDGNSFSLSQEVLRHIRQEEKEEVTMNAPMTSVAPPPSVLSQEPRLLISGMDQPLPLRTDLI
Sequence of wild-type (WT) truncated human STING protein, amino acids 155-379 (Q86WV6 155-379 H232R): as the sequence (Q86WV6 155-379 G230A/H232R/R293Q) above, with A76G, Q139R counted along it

In the case of `Nc1nc2c(ncn2[C@@H]2O[C@@H]3COP(=O)(S)OCCn4c(nc5cncnc54)COP(=O)(S)O[C@@H]2[C@@H]3F)c(=O)[nH]1` (single isomer, unassigned) [Example 1A], the IC50 (as a rule, the concentration at which inhibition is half-maximal) in experiment [1] (setting [4]) is under 1 µM.

For the compound `Nc1nc2c(ncn2[C@@H]2O[C@@H]3COP(=O)(S)OCCn4c(nc5c(N)ncnc54)COP(=O)(S)O[C@@H]2[C@@H]3F)c(=O)[nH]1` (single isomer, unassigned) [Example 7A], the half-inhibitory concentration (IC50) in experiment [2] (setting [5]) is 10 to 100 µM; in experiment [1] (setting [4]) it was 1 to 9.99 µM; in experiment [3] (read-out: Murine Binding IC50), under 1 µM.

As to `Nc1nc2c(ncn2[C@@H]2O[C@@H]3COP(=O)(S)OCCn4c(nc5c(N)ncnc54)COP(=O)(S)O[C@@H]2[C@@H]3F)c(=O)[nH]1` (single isomer, unassigned) [Example 7B], the IC50 in experiment [2] (setting [5]) was 10 to 100 µM; in experiment [1] (setting [4]), 1 to 9.99 µM; in experiment [3] (read-out: Murine Binding IC50), under 1 µM.

As for `Nc1nc2c(ncn2[C@@H]2O[C@@H]3COP(=O)(S)OCCn4c(nc5c(N)ncnc54)COP(=O)(S)O[C@@H]2[C@@H]3F)c(=O)[nH]1` (single isomer, unassigned) [Example 7C], the IC50 in experiment [2] (setting [5]), in experiment [1] (setting [4]) and in experiment [3] (read-out: Murine Binding IC50) was under 1 µM in each case.

In the case of `Nc1nc2c(ncn2[C@@H]2O[C@@H]3COP(=O)(S)OCCn4c(nc5c(N)ncnc54)COP(=O)(S)O[C@@H]2[C@@H]3F)c(=O)[nH]1` (single isomer, unassigned) [Example 7D], the concentration for half-maximal inhibition (IC50) in experiment [2] (setting [5]) is 1 to 9.99 µM; in experiment [1] (setting [4]) it was under 1 µM; in experiment [3] (read-out: Murine Binding IC50), under 1 µM.

With `Nc1nc2ncn([C@@H]3O[C@@H]4COP(=O)(S)OCCn5c(nc6cc(Cl)cnc65)COP(=O)(S)O[C@@H]3[C@@H]4F)c2c(=O)[nH]1` (single isomer, unassigned) [Example 13B], the IC50 fell in the range of 10 to 100 µM in experiment [2] (setting [5]), 10 to 100 µM in experiment [1] (setting [4]) and 1 to 9.99 µM in experiment [3] (read-out: Murine Binding IC50).

Consider `Nc1nc2c(ncn2[C@@H]2O[C@@H]3COP(=O)(S)OCCn4c(nc5cncnc54)COP(=O)(S)O[C@@H]2[C@H]3F)c(=O)[nH]1` (single isomer, unassigned) [Example 25B], for which the half-maximal inhibitory concentration (IC50) in experiment [2] (setting [5]) lay within 10 to 100 µM.

Consider `Nc1nc2c(ncn2[C@@H]2O[C@@H]3COP(=O)(S)OCCn4c(nc5cncnc54)COP(=O)(S)O[C@@H]2[C@H]3F)c(=O)[nH]1` (single isomer, unassigned) [Example 25D], for which the IC50 in experiment [2] (setting [5]) and in experiment [1] (setting [4]) was under 1 µM in each case.

`CO[C@H]1[C@H]2OP(=O)(S)OCc3nc4cncnc4n3CCOP(=O)(S)OC[C@H]1O[C@H]2n1cnc2c(=O)[nH]c(N)nc21` (single isomer, unassigned) [Example 27B]: the concentration for half-maximal inhibition (IC50) in experiment [2] (setting [5]) was 10 to 100 µM; in experiment [1] (setting [4]), 1 to 9.99 µM; in experiment [3] (read-out: Murine Binding IC50), under 1 µM.

For `CO[C@H]1[C@H]2OP(=O)(S)OCc3nc4cncnc4n3CCOP(=O)(S)OC[C@H]1O[C@H]2n1cnc2c(=O)[nH]c(N)nc21` (single isomer, unassigned) [Example 27C], the IC50 in experiment [2] (setting [5]), in experiment [1] (setting [4]) and in experiment [3] (read-out: Murine Binding IC50) was under 1 µM throughout.

As to `CO[C@H]1[C@H]2OP(=O)(S)OCc3nc4cncnc4n3CCOP(=O)(S)OC[C@H]1O[C@H]2n1cnc2c(=O)[nH]c(N)nc21` (single isomer, unassigned) [Example 27D], the figures for the IC50 in experiment [2] (setting [5]), in experiment [1] (setting [4]) and in experiment [3] (read-out: Murine Binding IC50) were 1 to 9.99 µM, under 1 µM and under 1 µM, respectively.

As to `C[C@H]1Cn2c(nc3cncnc32)COP(=O)(S)O[C@@H]2[C@H](F)[C@@H](COP(=O)(S)O1)O[C@H]2n1cnc2c(=O)[nH]c(N)nc21` (single isomer, unassigned) [Example 33C], the half-inhibitory concentration (IC50) in experiment [2] (setting [5]) was in the range of 10 to 100 µM.

`Nc1nc2c(ncn2[C@@H]2O[C@@H]3COP(=O)(O)O[C@@H]4[C@H](O)[C@@H](COP(=O)(O)O[C@@H]2[C@@H]3O)O[C@H]4n2cnc3c(N)ncnc32)c(=O)[nH]1` [2′,2′-cGAMP, reference compound]: the half-inhibitory concentration (IC50) in experiment [2] (reference compound, read-out: IC50 using the WT STING protein) is 0.562 µM; in experiment [1] (reference compound, unit printed as 'M' (sic), read-out: IC50 using the AQ STING protein), 0.098 µM; in experiment [3] (reference compound, read-out: IC50, murine STING binding), 0.055 µM.

Consider `Nc1nc2c(ncn2[C@@H]2O[C@@H]3COP(=O)(O)OCCCn4c(nc5cncnc54)COP(=O)(O)O[C@@H]2[C@@H]3O)c(=O)[nH]1` [Example 2, (1R,22R,24R,25R)-24-(2-Amino-6-oxo-6,9-dihydro-1H-purin-9-yl)-3,19,25-trihydroxy-2,4,18,20,23-pentaoxa-710,122,14-tetraaza-3lambda5,19lambda5-diphosphatetracyclo[20.2.1.06,14.08,13]pentacosa-6,8(13),9,11-tetraene-3,19-dione], for which the half-inhibitory concentration (IC50) in experiment [2] (setting [5]) and in experiment [1] (setting [4]) was 10 to 100 µM each time.

In the case of `Nc1nc2c(ncn2[C@@H]2O[C@@H]3COP(=O)(O)OCCn4c(nc5cncnc54)COP(=O)(O)O[C@@H]2[C@@H]3F)c(=O)[nH]1` [Example 4, (1S,21R,23R,24R)-23-(2-Amino-6-oxo-6,9-dihydro-1H-purin-9-yl)-24-fluoro-3,18-dihydroxy-2,4,17,19,22-pentaoxa-7,10,12,14-tetraaza-3lambda5,18lambda5-diphosphatetracyclo[19.2.1.06,14.08,13]tetracosa-6,8(13),9,11-tetraene-3,18-dione], the 50% inhibitory concentration (IC50) in experiment [2] (setting [5]) was 10 to 100 µM; in experiment [1] (setting [4]), 1 to 9.99 µM; in experiment [3] (read-out: Murine Binding IC50), under 1 µM.

Consider `Nc1ncnc2c1ncn2[C@@H]1O[C@@H]2COP(=O)(S)OCCn3c(nc4cncnc43)COP(=O)(S)O[C@@H]1[C@@H]2O` (stereo partly drawn) [Example 8, (1R,21R,23R,24R)-23-(6-Amino-9H-purin-9-yl)-24-hydroxy-3,18-disulfanyl-2,4,17,19,22-pentaoxa-7,10,12,14-tetraaza-3lambda5,18lambda5-diphosphatetracyclo[19.2.1.06,14.08,13]tetracosa-6,8(13),9,11-tetraene-3,18-dione], for which the concentration for half-maximal inhibition (IC50) in experiment [2] (setting [5]) lay within 10 to 100 µM; in experiment [1] (setting [4]) it was 10 to 100 µM; in experiment [3] (read-out: Murine Binding IC50), 1 to 9.99 µM.

Turning to `Nc1nc2c(ncn2[C@@H]2O[C@@H]3COP(=O)(S)OCCCn4c(nc5cncnc54)COP(=O)(S)O[C@@H]2[C@@H]3O)c(=O)[nH]1` (stereo partly drawn) [Example 9, (1R,22R,24R,25R)-24-(2-Amino-6-oxo-6,9-dihydro-1H-purin-9-yl)-25-hydroxy-3,19-disulfanyl-2,4,18,20,23-pentaoxa-7,10,12,14-tetraaza-3lambda5,19lambda5-diphosphatetracyclo[20.2.1.06,14.08,13]pentacosa-6,8,10,12-tetraene-3,19-dione], the IC50 in experiment [2] (setting [5]) was 10 to 100 µM; in experiment [1] (setting [4]) it was 1 to 9.99 µM; in experiment [3] (read-out: Murine Binding IC50), 1 to 9.99 µM.

In the case of `Nc1nc2c(ncn2[C@@H]2O[C@@H]3COP(=O)(O)OCCn4c(nc5cncnc54)COP(=O)(O)O[C@@H]2[C@@H]3O)c(=O)[nH]1` [Example 10, (1R,21R,23R,24R)-23-(2-Amino-6-oxo-6,9-dihydro-1H-purin-9-yl)-3,18,24-trihydroxy-2,4,17,19,22-pentaoxa-7,10,12,14-tetraaza-3lambda5,18lambda5-diphosphatetracyclo[19.2.1.06,14.08,13]tetracosa-6,8,10,12-tetraene-3,18-dione], the half-inhibitory concentration (IC50) in experiment [2] (setting [5]) is 10 to 100 µM; in experiment [1] (setting [4]), 1 to 9.99 µM; in experiment [3] (read-out: Murine Binding IC50), under 1 µM.

`Nc1nc2c(ncn2[C@@H]2O[C@@H]3COP(=O)(S)OCCn4c(nc5cncnc54)COP(=O)(S)O[C@@H]2C3(F)F)c(=O)[nH]1` (stereo partly drawn) [Example 36D, (1S,21R,23R)-23-(2-Amino-6-oxo-6,9-dihydro-1H-purin-9-yl)-24,24-difluoro-3,18-disulfanyl-2,4,17,19,22-pentaoxa-7,10,12,14-tetraaza-3lambda5,18lambda5-diphosphatetracyclo[19.2.1.06,14.08,13]tetracosa-6,8,10,12-tetraene-3,18-dione]: the IC50 in experiment [2] (setting [5]) was 10 to 100 µM; in experiment [1] (setting [4]), 1 to 9.99 µM; in experiment [3] (read-out: Murine Binding IC50) it was under 1 µM.

For `Nc1nc2c(ncn2[C@@H]2O[C@@H]3COP(=S)(S)OCCn4c(nc5cncnc54)COP(=O)(S)O[C@@H]2[C@@H]3F)c(=O)[nH]1` (stereo partly drawn) [Example 39, (1S,21R,23R,24R)-23-(2-Amino-6-oxo-6,9-dihydro-1H-purin-9-yl)-24-fluoro-3,18-disulfanyl-18-sulfanylidene-2,4,17,19,22-pentaoxa-7,10,12,14-tetraaza-3lambda5,18lambda5-diphosphatetracyclo[19.2.1.06,14.08,13]tetracosa-6,8(13),9,11-tetraen-3-one], the IC50 in experiment [3] (read-out: Murine Binding IC50) is under 1 µM.

With `COCc1ncc2nc3n(c2n1)CCOP(=O)(S)OC[C@H]1O[C@@H](n2cnc4c(=O)[nH]c(N)nc42)[C@H](OP(=O)(S)OC3)[C@@H]1F` (stereo partly drawn) [Example 40C, (1S,21R,23R,24R)-23-(2-Amino-6-oxo-6,9-dihydro-H-purin-9-yl)-24-fluoro-11-(methoxymethyl)-3,18-disulfanyl-2,4,17,19,22-pentaoxa-7,10,12,14-tetraaza-3lambda5,18lambda5-diphosphatetracyclo[19.2.1.06,14.08,13]tetracosa-6,8,10,12-tetraene-3,18-dione], the 50% inhibitory concentration (IC50) in experiment [2] (setting [5]) is 10 to 100 µM; in experiment [1] (setting [4]), 1 to 9.99 µM; in experiment [3] (read-out: Murine Binding IC50), under 1 µM.
